Measured values as given in ChEMBL document CHEMBL1201862, “PubChem BioAssay data set” (2004).
One block for each molecule: values may come before it. Activity calls are given as the source filed them.

How the values were obtained:
[1] = T. cruzi growth inhibition in host cells, dose response, cell-based, plate reader, dry powder, set 2 (AID 652275); type: functional
[2] = anti-trypanosomal activity in BESM host cells – imaging, CA-I/72 strain, bovine embryo skeletal muscle, dry powder, dose response (AID 651885); type: functional, cell-based
[3] = Trypanosoma cruzi replication inhibitors in host cells – cell-based, plate reader, dry powder samples, dose response (AID 651845); type: functional
[4] = viability loss in A549 lung cells – cell-based, 24 h, CellTiter-Glo luminescence, cherry-picks, cytotoxicity control, dose response (AID 1053115); type: functional; conditions: A549, 24 h
Fibrinogen beta chain [5] = molecular target: T1, Fibrinogen beta chain (Homo sapiens, UniProt P02675); assay: Fluorescence polarization-based biochemical high throughput dose response assay to identify inhibitors that disrupt the binding of a cyclic peptide (Tn6) to the fibrin proteolytic product D-Dimer and fragment E complex [DD(E )].
T1 sequence (P02675 whole entry, the tested form may be a part): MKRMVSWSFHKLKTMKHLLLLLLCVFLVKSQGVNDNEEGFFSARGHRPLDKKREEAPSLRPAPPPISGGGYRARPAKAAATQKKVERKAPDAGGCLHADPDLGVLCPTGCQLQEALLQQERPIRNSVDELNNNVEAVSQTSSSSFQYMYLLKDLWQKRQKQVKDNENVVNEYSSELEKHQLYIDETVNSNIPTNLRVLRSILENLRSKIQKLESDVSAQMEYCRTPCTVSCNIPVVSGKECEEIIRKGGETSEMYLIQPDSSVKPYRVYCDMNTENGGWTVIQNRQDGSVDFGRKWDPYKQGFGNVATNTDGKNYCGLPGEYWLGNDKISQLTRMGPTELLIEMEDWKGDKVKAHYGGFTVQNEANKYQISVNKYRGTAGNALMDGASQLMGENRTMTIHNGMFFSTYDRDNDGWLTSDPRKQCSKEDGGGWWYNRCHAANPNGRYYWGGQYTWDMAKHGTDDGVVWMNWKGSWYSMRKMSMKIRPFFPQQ

Fibrinogen beta chain [6] = molecular target: T1, Fibrinogen beta chain; assay: Fluorescence polarization-based biochemical high throughput dose response assay to identify inhibitors that disrupt the binding of a cyclic peptide (Tn7) to the fibrin proteolytic product D-Dimer and fragment E complex [DD(E )].
[7] = molecular target: T2, Oxysterols receptor LXR-beta (Homo sapiens, UniProt P55055); type: functional, cell-based;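 also: Cell-based luminescence dose-response assay of agonist activity at LXR, run as a confirmatory counterscreen to a daf-12 agonist screen; HEK293 cells with Gal4-LXR fusion and GAL4-driven luciferase reporter; agonist potency from rising luciferase signal of a Gal4-LXR reporter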
T2 sequence (P55055 whole entry): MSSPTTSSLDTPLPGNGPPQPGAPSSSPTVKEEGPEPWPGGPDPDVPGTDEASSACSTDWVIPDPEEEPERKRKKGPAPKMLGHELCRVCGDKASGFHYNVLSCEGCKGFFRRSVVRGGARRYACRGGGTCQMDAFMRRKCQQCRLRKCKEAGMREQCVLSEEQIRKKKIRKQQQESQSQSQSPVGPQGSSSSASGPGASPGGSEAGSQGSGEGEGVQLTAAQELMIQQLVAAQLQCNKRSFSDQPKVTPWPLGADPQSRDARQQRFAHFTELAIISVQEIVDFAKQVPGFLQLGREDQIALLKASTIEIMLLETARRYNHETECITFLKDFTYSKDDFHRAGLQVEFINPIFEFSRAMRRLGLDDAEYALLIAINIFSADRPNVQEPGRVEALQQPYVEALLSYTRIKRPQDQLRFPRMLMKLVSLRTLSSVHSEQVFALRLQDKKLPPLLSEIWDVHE

[8] = molecular target: T3, Rac GTPase-activating protein 1 (Homo sapiens, UniProt Q9H0H5); assay: blockers of MgcRacGAP-driven Rac1 GTP hydrolysis – biochemical, ADP Hunter fluorescence, primary and confirmatory, confirmation (AID 624330); type: functional
T3 sequence (Q9H0H5 whole entry): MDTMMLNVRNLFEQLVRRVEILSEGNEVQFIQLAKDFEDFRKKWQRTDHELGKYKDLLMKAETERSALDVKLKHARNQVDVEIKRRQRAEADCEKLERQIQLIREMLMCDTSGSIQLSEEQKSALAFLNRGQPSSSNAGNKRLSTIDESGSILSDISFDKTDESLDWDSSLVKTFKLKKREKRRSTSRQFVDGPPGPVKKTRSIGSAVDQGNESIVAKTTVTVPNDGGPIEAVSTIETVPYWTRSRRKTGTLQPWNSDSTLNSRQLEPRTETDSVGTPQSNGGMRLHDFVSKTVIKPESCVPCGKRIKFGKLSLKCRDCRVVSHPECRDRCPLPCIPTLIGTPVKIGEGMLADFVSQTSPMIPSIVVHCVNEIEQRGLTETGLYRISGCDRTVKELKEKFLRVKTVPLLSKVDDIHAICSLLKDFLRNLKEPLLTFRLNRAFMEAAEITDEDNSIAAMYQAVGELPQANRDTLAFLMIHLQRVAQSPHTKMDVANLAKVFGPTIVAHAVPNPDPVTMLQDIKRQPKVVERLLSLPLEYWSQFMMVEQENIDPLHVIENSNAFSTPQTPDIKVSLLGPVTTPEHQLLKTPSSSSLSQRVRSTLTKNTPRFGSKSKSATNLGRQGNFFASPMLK

[9] = molecular target: Dual specificity tyrosine-phosphorylation-regulated kinase 1A (Rattus norvegicus, UniProt Q63470); type: biochemical, Homo sapiens
Beta-galactosidase = Beta-galactosidase (Escherichia coli, UniProt Q8VNN2); assay: Dose response counterscreen for EBI2 assay utilizing the enzyme, b-galactosidase.; type: functional
Beta-galactosidase, sequence (Q8VNN2 whole entry): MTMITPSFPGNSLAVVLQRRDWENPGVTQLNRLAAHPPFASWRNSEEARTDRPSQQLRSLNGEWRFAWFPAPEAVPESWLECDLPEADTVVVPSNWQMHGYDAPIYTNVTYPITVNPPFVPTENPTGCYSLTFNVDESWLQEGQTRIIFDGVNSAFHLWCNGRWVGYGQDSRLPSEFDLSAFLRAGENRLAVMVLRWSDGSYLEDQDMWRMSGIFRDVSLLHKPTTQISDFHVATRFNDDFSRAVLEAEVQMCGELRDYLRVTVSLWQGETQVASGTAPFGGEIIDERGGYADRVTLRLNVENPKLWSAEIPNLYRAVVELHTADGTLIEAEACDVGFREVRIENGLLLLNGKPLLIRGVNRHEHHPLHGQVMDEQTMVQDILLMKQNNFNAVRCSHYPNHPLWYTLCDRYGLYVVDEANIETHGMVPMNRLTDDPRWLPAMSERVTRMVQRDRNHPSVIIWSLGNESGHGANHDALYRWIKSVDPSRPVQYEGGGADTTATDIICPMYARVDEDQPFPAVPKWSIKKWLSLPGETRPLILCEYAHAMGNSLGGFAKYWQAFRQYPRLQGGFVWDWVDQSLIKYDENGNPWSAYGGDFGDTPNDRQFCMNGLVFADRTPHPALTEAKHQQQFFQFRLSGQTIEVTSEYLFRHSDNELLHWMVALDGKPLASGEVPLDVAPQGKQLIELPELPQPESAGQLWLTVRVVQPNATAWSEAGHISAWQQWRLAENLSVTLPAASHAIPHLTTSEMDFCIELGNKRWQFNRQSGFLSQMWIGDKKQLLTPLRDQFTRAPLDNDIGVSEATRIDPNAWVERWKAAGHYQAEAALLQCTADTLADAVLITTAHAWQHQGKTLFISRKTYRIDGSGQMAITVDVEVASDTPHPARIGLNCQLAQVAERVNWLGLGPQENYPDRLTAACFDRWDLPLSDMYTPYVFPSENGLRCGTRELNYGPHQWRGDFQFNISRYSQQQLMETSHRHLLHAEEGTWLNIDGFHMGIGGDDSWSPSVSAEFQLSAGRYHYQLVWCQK

[10] = viability loss in THP-1 monocytes – THP-1 cells, cytotoxicity control for Vif-APOBEC3G degradation inhibitor project, dose response (AID 1117359); type: functional; conditions: THP-1
[11] = MIN6 cell viability loss – mouse insulinoma, cytotoxicity control, dose response (AID 2122); type: functional;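 also: confirmatory high-throughput counterscreen run to flag cytotoxic compounds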
[12] = HIV-1 Vif–A3G interaction blockers – biochemical, TR-FRET, GST-Vif 1-94, biotin-A3G peptide, dose response retest, primary screen (AID 1117319); type: functional;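 also: TR-FRET signal of purified GST-Vif binding a biotinylated A3G peptide; inhibitors lower the FRET signal by blocking Vif and A3G binding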
[13] = NIH3T3 cell viability loss – ATP luminescence, mouse fibroblasts, counter-screen, dose response (AID 2010); type: functional, cell-based;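 also: cells exposed to compound for about 90 hours before reading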
[14] = viability loss in Vero cells – cytotoxicity control for Vif-APOBEC3G degradation inhibitor project, dose response (AID 1117358); type: functional; conditions: Vero
[15] = decrease of insulin promoter-GFP reporter – imaging, high-content screening, mouse beta cells (AID 1628); type: functional; conditions: MIN6
[16] = Trypanosoma cruzi growth suppression in host cells – NIH3T3 host cells, beta-gal luminescence, confirmation (AID 2044); type: functional, cell-based;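 also: intracellular parasites grown in NIH/3T3 mouse fibroblasts as host cells; luminescent beta-galactosidase reporter signal from transgenic T. cruzi replicating inside host cells; inhibitors lower the luminescence signal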
[17] = cytotoxicity toward Colo320 cells – cell-based, CellTiter-Glo luminescence, IC50, dose response (AID 1117334); type: functional; conditions: COLO 320
[18] = Reduced DLD-1 viability, concentration-response, CellTiter-Glo luminescence (AID 1117352); type: functional
[19] = HCT116 cell viability decrease, GSK3B pretreatment – CellTiter-Glo, IC50, dose response (AID 1117339); type: functional; conditions: HCT-116
[20] = CellTiter-Glo luminescence survival assay, SW480 colon tumor line, concentration-response curve, half-maximal inhibitory concentration (AID 1117338); type: functional
[21] = rise of 4N DNA cells, HeLa – IC50, dose response (AID 1117351); type: functional, cell-based
[22] = RKO cell viability reduction, dose response, CellTiter-Glo luminescence (AID 1117322); type: functional

SMILES: CC(C)N1C[C@H](C)[C@@H](CN(C)Cc2ccc(Oc3ccccc3)cc2)Oc2c(NC(=O)c3ccncc3)cccc2C1=O
AC50 [1]: 0.00111 µM (active)
IC50 [2]: 0.00163 µM (active)
AC50 [3]: 0.00119 µM (active)

SMILES: OC[C@@H]1Nc2ccc(-c3cccc(F)c3)cc2[C@H]2[C@@H]1CCN2Cc1ccc(F)cc1
AC50 [4]: 51.5 µM (active)

IC50 (Fibrinogen beta chain [5]): > 83.3 µM (inactive)
IC50 (Fibrinogen beta chain [6]): > 27.8 µM (inactive)
SMILES: CCOC(=O)N1CCN(Cc2nc(-c3ccc(C)cc3)no2)CC1

SMILES: CSc1nc(/C=C2\C=Nc3ccccc32)c(O)[nH]1
EC50 [7]: > 67.6 µM (inactive)
IC50 [8]: 35.9 µM (active)
AC50 [9]: 7.28 µM (active)
EC50 (cells): > 67.6 µM (inactive)

SMILES: Cc1cccc(S(=O)(=O)c2c(N)n(/N=C/c3ccco3)c3nc4ccccc4nc23)c1
IC50 (Beta-galactosidase): > 80 µM (inactive)
CC50 [10]: > 40 µM (active)
IC50 [11]: 9.21 µM (active)
IC50 [12]: > 55.3 µM (active)
EC50 [13]: 12 µM (active)
CC50 [14]: > 40 µM (active)
IC50 [15]: 6.02 µM (active)
EC50 [16]: 2.12 µM (active)

SMILES: COc1cccc2c1C(=O)c1c(O)c3c(c(O)c1C2=O)C[C@@](O)(C(=O)CO)CC3OC1CC(N2CCOC(OC)C2)C(O)C(C)O1 (some centres undefined)
IC50 [17]: 0.001 µM (active)
IC50 [18]: 0.001 µM (active)
IC50 [19]: 0.001 µM (active)
IC50 [20]: 0.001 µM (active)
IC50 [21]: > 10 µM (inactive)
IC50 [22]: 0.001 µM (active)
